Each block holds one substance with its values, some of them ahead of it.
What was measured:
[1] = tested on: human gastric cancer NCI-N87 subcutaneous xenografts; test: In vivo anti-tumor efficacy assay (FIG. 24), IV on D 0; design: species or system BALB/cA-nude mice; conditions: 1.0 mg/kg
Procedure: (§1) 6-7 weeks BALB/cA-nude mice (♀) were purchased from Shanghai Lingchang Biotechnology Co., Ltd. Production license number: SCXK (Shanghai) 2013-0018; animal certificate number: 2013001815683; and feeding environment: SPF level.
Those nude mice were subcutaneously inoculated with 6×10^6 human gastric cancer NCI-N87 cells, and after the tumors grew to 100-250 mm^3, the mice were divided into groups (D0) according to tumor volumes. The mice were injected intravenously (IV), each with an administration volume 10 mL/kg; mice in vehicle control group was administered with the same volume of “vehicle” (physiological saline containing 0.1% BSA). Tumor volume was measured 2 times a week, the mice were weighed, and corresponding data were recorded.
The purpose of this experiment was to investigate the effect of the drugs on tumor growth using specific indicators T/C % or tumor growth inhibition value (TGI) (%).
Tumor diameters were measured twice a week with a vernier caliper. The tumor volume (V) was calculated as: V=½×a×b^2; in which a and b represent length and width respectively. T/C(%)=(T−T0)/(C−C0)×100, in which T and C represent the tumor volumes at the end of the experiment; T0 and C0 represent the tumor volumes at the beginning of the experiment. […]

[2] = tested on: BT-474 human breast cancer cells; test: SRB cell proliferation assay in vitro; assay type: cell-based
From the text: (§2) Sulforhodamine B (SRB)-based colorimetric method was used in this Example to evaluate the anti-proliferative effect of the drugs. SRB is a pink anionic dye which is easily soluble in water and can specifically bind to basic amino acids making up proteins in cells under an acidic condition. It provides an absorption peak at 510 nm, and the absorbance is linearly and positively correlated with the amount of cells. In this regard, the method can be used in a quantitative detection of cell number.
(§3) BT-474, SK-BR-3 and NCI-N87 cells in RPMI 1640 medium containing 10% fetal bovine serum, SKOV-3, Du-145, Panc-1, MCF-7 and MDA-MB-231 cells in DMEM containing 10% fetal bovine serum, and MDA-MB-468 cells in DMEM/F12 containing 10% fetal bovine serum were incubated to logarithmic growth phase in a 5% CO2 incubator at 37° C. The above cells in the logarithmic growth phase were inoculated into 96-well plates at a density of 2×10^3 to 9×10^3 cells per well, 100 μL per well, cultured for 24 hours and then different concentrations of drugs were added thereto for 5 days. Specifically, each drug was prepared into nine concentrations by diluting in 3, 4 or 5-fold, each concentration was set in duplicate wells, and corresponding concentration of vehicle control wells and medium control wells without cells were set too. At the end of drug action, culture solutions were decanted, and 100 μl of a pre-cooled trichloroacetic acid solution (30%, w/v) at 4° C. was added to each well and the cells were fixed at 4° C. for 1 hour. Subsequently, the cells were washed with deionized water for 5 times, and dried at room temperature, and then 100 μL of 0.4% (w/v) SRB dye (Sigma, prepared with 1% glacial acetic acid) was added to each well. After being incubated and stained at room temperature for 30 minutes, the cells were washed with 1% glacial acetic acid for 4 times to remove unbound dyes, and then dried at room temperature. Afterwards, 100 μL of 10 mM Tris solution was added per well.
as §2, with “SRB is a pink anionic dye which is easily soluble in water and can specifically bind to basic amino acids making up proteins in cells under an acidic condition.” left out
(§4) The above cells in the logarithmic growth phase were inoculated into 96-well plates at a density of 2×10^3 to 9×10^3 cells per well, 100 μL per well, cultured for 24 hours and then different concentrations of drugs were added thereto for 5 days. […] At the end of drug action, culture solutions were decanted, and 100 μl of a pre-cooled trichloroacetic acid solution (30%, w/v) at 4° C. was added to each well and the cells were fixed at 4° C. for 1 hour.

[3] = tested on: NCI-N87 human gastric cancer cells; test: SRB cell proliferation assay in vitro; assay type: cell-based
From the text: as §2, §3
as §2, with “SRB is a pink anionic dye which is easily soluble in water and can specifically bind to basic amino acids making up proteins in cells under an acidic condition.” left out
as §4

[4] = tested on: SK-BR-3 human breast cancer cells; test: SRB cell proliferation assay in vitro; assay type: cell-based; conditions: SK-BR-3, Her2 highly expressing, 5 days, FIG. 4
From the text: as §2
BT-474, SK-BR-3 and NCI-N87 cells in RPMI 1640 medium containing 10% fetal bovine serum, SKOV-3, Du-145, Panc-1, MCF-7 and MDA-MB-231 cells in DMEM containing 10% fetal bovine serum, and MDA-MB-468 cells in DMEM/F12 containing 10% fetal bovine serum were incubated to logarithmic growth phase in a 5% CO2 incubator at 37° C. The above cells in the logarithmic growth phase were inoculated into 96-well plates at a density of 2×10^3 to 9×10^3 cells per well, 100 μL per well, cultured for 24 hours and then different concentrations of drugs were added thereto for 5 days. Specifically, each drug was prepared into nine concentrations by diluting in 3, 4 or 5-fold, each concentration was set in duplicate wells, and corresponding concentration of vehicle control wells and medium control wells without cells were set too. […]

[5] = tested on: human gastric cancer NCI-N87 subcutaneous xenografts; test: In vivo anti-tumor efficacy assay (FIG. 10), IV once a week, 2 times in total; design: species or system BALB/cA-nude mice; conditions: 1 mg/kg
Procedure: as §1
Those nude mice were subcutaneously inoculated with human gastric cancer NCI-N87 cells, and then randomly divided into groups (D0) when tumors grew to 100-250 mm^3. Tumor volume was measured 2-3 times a week, the mice were weighed, and corresponding data were recorded. The tumor volume (V) was calculated as: V=½×a×b^2; in which a and b represent length and width respectively. T/C (%)=(T−T0)/(C−C0)×100, in which T and C represent the tumor volumes at the end of the experiment; T0 and C0 represent the tumor volumes at the beginning of the experiment.

[6] = tested on: 18 human tumor cell lines; conditions: cited from earlier work

Substance: P-mcVC-MMAE: comparison Pertuzumab conjugate; traditional mcVC-PAB conjugate with MMAE
% T/C D 23 [1]: 17% | % TGI D 23 [1]: 83% | Mean tumor volume (mm3) D 23 [1]: 194.6 mm3 | Partial regression ([1]; number of mice, 6 per group): 3 | complete regression ([1]; number of mice, 6 per group): 0 | inhibition of tumor cell proliferation ([2]; BT-474, Her2 highly expressing, 5 days, FIG. 5): significant inhibition of tumor cell proliferation | inhibition of tumor cell proliferation ([3]; NCI-N87, Her2 highly expressing, 5 days, FIG. 6, FIG. 9-1): significant inhibition of tumor cell proliferation | inhibition of tumor cell proliferation [4]: significant inhibition of tumor cell proliferation | mice with tumors partially regressed [5]: 2/6 | tumor inhibition rate [5]: 94%

Substance: Taltobulin
IC50 [6]: 2.5 nM

IC50 ([2]; BT-474, 120 h): >10 µg/mL | IC50 ([3]; NCI-N87, 120 h): >10 µg/mL
Substance: Pertuzumab: HER2 antibody, naked antibody

From patent US10987430B2, “Di-substituted maleic amide linker for antibody drug conjugating and preparation method and use thereof” (Mabwell (shanghai) Bioscience Co., Ltd., priority 2016, dated 2021)
